According to US7575882B2, “Compositions and methods for identifying modulators of TRPV2” (Janssen Pharmaceutica N. V., priority 2005, dated 2009):

Legend:
Type in all cases: cell-based
[1] = system: untransfected HEK293 cells; test: FLIPR calcium assay in untransfected HEK293 cells (control); details: 100 μM
[2] = biological target: T1, rat and human TRPV2 chimera RHR (Rattus norvegicus, UniProt Q9WUD2, A398L/D418K/D570G/D595E/E431N/E493A/E569T/E577V/E585D/F395L/F429V/I422A/INS586GN/K566E/L151P/L436T/L450V/L461V/L478F/L485V/L503S/M468I/M492L/N571P/P420Q/P587G/P589Q/Q419K/R460H/R490C/R560Q/R563W/R617H/S416T/S424H/S425L/S504A/S564R/S573A/S592G/T428E/T494I/T576S/T580M/V402I/V409A/V543I/V575E/V581E/V621M/V635I/Y400N); test: Calcium mobilization in HEK293 cells expressing TRPV2 chimera RHR; details: transient expression in HEK293
T1 construct: expressed in transfected cells; host or cells: HEK293, transient, pCI-neo
Experimental: The deletion mutant constructs were then transfected into HEK293 cells using Fugene 6 reagent (Roche) as per the manufacturer's instructions. At 24 hours post-transfection, the cells were harvested and replated in fresh DMEM medium supplemented with 10% fetal bovine serum, 100 units/ml penicillin, and 100 μg/ml streptomycin. The cells were distributed onto poly-D-Lysine coated 96-or 384-well plates at a density of approximately 40,000 and 10,000 cells per well, respectively. At approximately 48 hours post-transfection, the medium was removed from the assay plate and replaced with Calcium 3 Dye Buffer (Molecular Devices) using the protocol available from the manufacturer. Calcium mobilization was triggered using Δ^9-THC or 2-APB or elevated temperature buffer and measured using either FLIPR or FLEX STATION instruments.
Based on the predicted topology and primary sequence features of TRPV2, TRPV2 are divided into 3 major domains: 1) the amino-terminal intracellular domain; 2) the transmembrane domain; and 3) the carboxyl-terminal intracellular domain. For a chimera, each domain can be of rat (R) or human (H) origin. Three rat and human TRPV2 chimera were constructed and tested herein. RRH (SEQ ID NO:15) was a chimera comprising rat 1-392 aa, rat 393-646 aa, and human 647-764 aa. RHR (SEQ ID NO:16) was a chimera comprising rat 1-392, human 391-646, and rat 647-761. HRR (SEQ ID NO:17) was a chimera comprising human 1-390, rat 393-646, and rat 647-761.
DNA molecules encoding the three rat and human TRPV2 chimeras were obtained by fusion PCR. First, DNA molecules encoding the desired TRPV2 domains were amplified by PCR using the rat or human TRPV2 cDNA as the template with synthetic primer DNA containing in-frame sequence that overlapped with the other species domain to be linked. After PCR amplification and purification, DNA molecules encoding the desired TRPV2 domains from human and rat were combined and used as templates for fusion PCR with primer DNA matching the 5′ and 3′ end sequences of the coding sequence for the full length TRPV2 chimera. […]

human TRPV1 = biological target: T2, human TRPV1 (Homo sapiens, UniProt Q8NER1); test: FLIPR assay in HEK293 cells expressing human TRPV1; details: Δ^9-THC 240 μM, cannabinol 600 μM, others 120 μM
T2 construct: expressed in transfected cells; host or cells: HEK293
Experimental: A selected number of cannabinoids were also tested against HEK293 cells expressing human TRPV1 and canine TRPM8 in the FLIRP assay.

rat TRPV2 = biological target: T3, rat TRPV2 (Rattus norvegicus, UniProt Q9WUD2, A713V/L151P/T158I); test: Whole-cell patch clamp, HEK293 cells stably expressing rat TRPV2; details: 100 μM
T3 construct: A cDNA fragment encoding the full-length rat TRPV2 was subcloned into pCI-neo; expressed in transfected cells
T3 sequence (Q9WUD2 1-761 L151P/T158I/A713V): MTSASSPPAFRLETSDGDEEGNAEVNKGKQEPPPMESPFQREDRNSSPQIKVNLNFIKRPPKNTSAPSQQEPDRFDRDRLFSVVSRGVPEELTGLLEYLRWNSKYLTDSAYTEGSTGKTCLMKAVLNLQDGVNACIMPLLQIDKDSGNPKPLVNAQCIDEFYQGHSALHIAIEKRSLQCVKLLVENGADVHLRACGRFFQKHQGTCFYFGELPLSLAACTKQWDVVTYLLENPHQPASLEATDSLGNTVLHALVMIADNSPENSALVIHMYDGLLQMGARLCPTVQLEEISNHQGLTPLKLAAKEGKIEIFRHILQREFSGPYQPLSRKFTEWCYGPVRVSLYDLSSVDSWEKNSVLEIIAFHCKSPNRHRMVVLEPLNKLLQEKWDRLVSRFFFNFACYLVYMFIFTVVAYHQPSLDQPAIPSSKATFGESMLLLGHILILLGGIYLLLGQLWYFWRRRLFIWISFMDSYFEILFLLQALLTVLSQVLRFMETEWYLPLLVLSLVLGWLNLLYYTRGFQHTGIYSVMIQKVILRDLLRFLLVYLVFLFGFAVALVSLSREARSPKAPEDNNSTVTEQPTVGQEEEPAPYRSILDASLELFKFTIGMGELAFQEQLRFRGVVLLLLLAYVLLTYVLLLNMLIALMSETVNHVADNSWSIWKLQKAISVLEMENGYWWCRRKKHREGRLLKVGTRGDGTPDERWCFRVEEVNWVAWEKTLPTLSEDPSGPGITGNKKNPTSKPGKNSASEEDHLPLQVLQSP
Experimental: To further confirm the Δ^9-THC effect on TRPV2, whole-cell patch clamp studies were performed. The extracellular solution contained (in mM): NaCl, 132; CaCl, 1.8; KCl, 5.4; MgCl2, 0.8; HEPES, 10; glucose, 10; pH=7.4. The intracellular solution used to fill recording pipettes contained (in mM): CsCl, 145; EGTA, 5; HEPES, 10; glucose, 5; pH=7.4. Recordings were performed using the conventional whole-cell patch clamp technique, 2-3 days after transient transfection of human TRPV2 into HEK293 cell or 1-2 days after plating HEK293 cells stably expressing rat TRPV2 onto glass coverslips. Currents were amplified by a patch clamp amplifier and filtered at 2 kHz (Axopatch 200B), sampled at 10 kHz using Digidata 1322A and acquired and analyzed with pClamp 9.0 (all instruments from Molecular Devices, CA). A 600 ms voltage ramp was given once every five seconds from −100 mV to +60 mV. The holding potential between voltage ramps was −100 mV. Extracellular solutions were applied to the cell at 0.5 ml/min via a gravity-fed perfusion system. All experiments were performed at 22° C.

T1 sequence (Q9WUD2 other isoform, or with tags, fused parts or gaps with the stated changes): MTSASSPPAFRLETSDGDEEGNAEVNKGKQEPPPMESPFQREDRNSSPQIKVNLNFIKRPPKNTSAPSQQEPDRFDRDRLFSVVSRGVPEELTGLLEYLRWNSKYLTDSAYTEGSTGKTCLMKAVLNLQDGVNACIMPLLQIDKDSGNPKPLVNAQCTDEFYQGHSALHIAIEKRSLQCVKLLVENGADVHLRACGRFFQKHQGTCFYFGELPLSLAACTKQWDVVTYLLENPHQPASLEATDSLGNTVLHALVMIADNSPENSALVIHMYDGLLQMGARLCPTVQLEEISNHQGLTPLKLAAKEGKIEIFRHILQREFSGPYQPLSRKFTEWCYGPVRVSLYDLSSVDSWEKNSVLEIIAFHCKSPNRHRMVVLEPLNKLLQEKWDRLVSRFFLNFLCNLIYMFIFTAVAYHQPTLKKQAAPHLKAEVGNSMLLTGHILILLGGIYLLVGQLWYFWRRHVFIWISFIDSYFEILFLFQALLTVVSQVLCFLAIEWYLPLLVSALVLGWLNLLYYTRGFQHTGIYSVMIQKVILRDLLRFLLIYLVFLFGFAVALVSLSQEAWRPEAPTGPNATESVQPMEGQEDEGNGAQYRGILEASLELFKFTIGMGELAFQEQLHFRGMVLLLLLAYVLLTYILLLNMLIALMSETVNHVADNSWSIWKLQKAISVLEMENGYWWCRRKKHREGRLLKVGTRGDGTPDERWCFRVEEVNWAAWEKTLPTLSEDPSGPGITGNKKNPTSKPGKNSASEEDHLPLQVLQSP
T2 sequence (Q8NER1 whole entry): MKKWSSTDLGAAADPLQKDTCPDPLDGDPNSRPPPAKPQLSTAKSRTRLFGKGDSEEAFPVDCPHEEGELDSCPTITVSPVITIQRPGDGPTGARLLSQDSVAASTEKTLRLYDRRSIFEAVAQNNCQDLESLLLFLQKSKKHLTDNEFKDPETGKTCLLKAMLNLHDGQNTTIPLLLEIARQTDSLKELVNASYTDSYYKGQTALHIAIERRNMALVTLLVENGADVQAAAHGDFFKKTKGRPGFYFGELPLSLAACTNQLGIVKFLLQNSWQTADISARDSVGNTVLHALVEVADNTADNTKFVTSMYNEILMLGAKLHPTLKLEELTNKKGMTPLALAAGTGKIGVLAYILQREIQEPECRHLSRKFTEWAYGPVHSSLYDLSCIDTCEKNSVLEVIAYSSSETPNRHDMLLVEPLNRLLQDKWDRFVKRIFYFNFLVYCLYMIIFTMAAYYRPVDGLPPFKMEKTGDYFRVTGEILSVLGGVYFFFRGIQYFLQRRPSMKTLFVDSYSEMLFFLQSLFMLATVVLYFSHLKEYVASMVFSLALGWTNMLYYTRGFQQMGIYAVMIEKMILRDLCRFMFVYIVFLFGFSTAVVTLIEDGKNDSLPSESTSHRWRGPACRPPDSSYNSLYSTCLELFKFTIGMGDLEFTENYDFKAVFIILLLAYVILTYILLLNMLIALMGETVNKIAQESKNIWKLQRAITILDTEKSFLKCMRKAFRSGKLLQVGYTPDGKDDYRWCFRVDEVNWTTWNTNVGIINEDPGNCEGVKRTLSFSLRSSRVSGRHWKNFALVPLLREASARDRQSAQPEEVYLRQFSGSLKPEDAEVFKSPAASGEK

Substance: Delta-9-tetrahydrocannabinol [Δ^9-THC]
- elevation of intracellular Ca2+ in untransfected HEK293 cells [1]: no significant intracellular Ca^+ elevation
- response of chimera RHR to the compound [2]: fully responsive
- response of chimera RHR to the compound ([2]; listed as Δ9-THC): active
- activation of TRPV1 (human TRPV1): no significant activation
- whole-cell current amplitude in HEK293 cells expressing rTRPV2 compared to control (rat TRPV2; 22° C., hyperpolarized and depolarized potentials): significant increase of the whole-cell current amplitude
- reversal potential of the activated current (rat TRPV2; whole-cell patch clamp): ~0 mV
